Assay results published in patent US5710130A, “Antithrombotic agents” (Eli Lilly and Company, priority 1995, dated 1998).
Counter-ions that a name gives are not always drawn.

How the values were obtained:
Type in all cases: biochemical
human plasma [1] = test: Human plasma anticoagulation, prothrombin time (PT); conditions: concentration required to double PT, linear extrapolation
Method: (§1) Dog plasma and rat plasma is obtained from conscious mixed-breed hounds (either sex, Hazelton-LRE, Kalamazoo, Mich., U.S.A.) or from anesthetized male Sprague-Dawley rats (Harlan Sprague-Dawley, Inc., Indianapolis, Ind., U.S.A.) by venipuncture into 3.8 percent citrate. Fibrinogen is prepared from in-date ACD human blood as the fraction I-2 according to previous procedures and specifications. […] Human fibrinogen is also purchased as 98 percent pure/plasmin free from American Diagnostica, Greenwich, Conn. Coagulation reagents ACTIN, Thromboplastin, and Human plasma are from Baxter Healthcare Corp., Dade Division, Miami, Fla. Bovine thrombin from Parke-Davis ([…], Mich.) is used for coagulation assays in plasma.
(§2) Coagulation assay procedures are as previously described. […] A CoAScreener coagulation instrument (American LABor, Inc.) is used for all coagulation assay measurements. The prothrombin time (PT) is measured by adding 0.05 mL saline and 0.05 mL Thromboplastin-C reagent to 0.05 mL test plasma. The activated partial thromboplastin time (APTT) is measured by incubation of 0.05 mL test plasma with 0.05 mL Actin reagent for 120 seconds followed by 0.05 mL CaCl2 (0.02M). The thrombin time (TT) is measured by adding 0.05 mL saline and 0.05 mL thrombin (10 NIH units/mL) to 0.05 mL test plasma. The compounds of Formula I are added to human or animal plasma over a wide range of concentrations to determine prolongation effects on the APTT, PT, and TT assays. Linear extrapolations are performed to estimate the concentrations required to double the clotting time for each assay.

human plasma [2] = test: Human plasma anticoagulation, thrombin time (TT); conditions: concentration required to double thrombin time, linear extrapolation
Method: as §1, §2

human plasma [3] = test: Human plasma anticoagulation, activated partial thromboplastin time (APTT); conditions: concentration required to double APTT, linear extrapolation
Method: as §1, §2

N=C(N)c1ccc(CNC(=O)[C@@H]2C[C@@H]3CCCC[C@@H]3N2C(=O)[C@H]2CCCCN2)cc1 (relative stereo) [Example 20, (S-cis)-N-[[4-(aminoiminomethyl)phenyl]methyl]-octahydro-1-D-homoprolyl-1H-indole-2-carboxamide trihydrochloride]
Human Plasma Anticoagulation 2x Clotting time PT (human plasma [1]): 600 ng/mL

N=C(N)c1ccc(CNC(=O)[C@@H]2C[C@@H]3CCCC[C@@H]3N2C(=O)[C@H]2C[C@H]3CCCC[C@H]3CN2)cc1 (relative stereo) [Example 43, D-3-Piq-cis-Ohi-p-NHCH2 C6 H4 C(NH)NH2.2HCl]
Human Plasma Anticoagulation 2x Clotting time TT (human plasma [2]): 280 ng/mL | Human Plasma Anticoagulation 2x Clotting time PT (human plasma [1]): 930 ng/mL | Human Plasma Anticoagulation 2x Clotting time APTT (human plasma [3]): 1,100 ng/mL

CCS(=O)(=O)N[C@H](Cc1ccccc1)C(=O)N1CCC[C@H]1C(=O)NCCCCN=C(N)N.Cl [Example 1, EtSO2 -D-Phe-Pro-Agm.Hcl]
Human Plasma Anticoagulation 2x Clotting time TT (human plasma [2]): 250 ng/mL

N=C(N)NCCCCCCNC(=O)[C@@H]1CCCN1C(=O)[C@H](N)Cc1ccccc1 [Example 5, D-Phe-Pro-NH(CH2)6 NHC(NH)NH2.HCl]
Human Plasma Anticoagulation 2x Clotting time TT (human plasma [2]): 30,000 ng/mL

N=C(N)NCCCCCNC(=O)[C@@H]1CCCN1C(=O)[C@H](N)Cc1ccccc1 [Example 6, D-Phe-Pro-NH(CH2)5 NHC(NH)NH2.HCl]
Human Plasma Anticoagulation 2x Clotting time TT (human plasma [2]): 390 ng/mL

N=C(N)NCCCNC(=O)[C@@H]1CCCN1C(=O)[C@H](N)Cc1ccccc1 [Example 7, D-Phe-Pro-NH(CH2)3 NHC(NH)NH2.HCl]
Human Plasma Anticoagulation 2x Clotting time TT (human plasma [2]): 490 ng/mL

N=C(N)NCc1ccc(CNC(=O)[C@@H]2CCCN2C(=O)[C@H](N)Cc2ccccc2)cc1 [Example 9, D-Phe-Pro-p-NHCH2 C6 H4 CH2 NHC(NH)NH2.2TFA]
Human Plasma Anticoagulation 2x Clotting time TT (human plasma [2]): > 91,000 ng/mL

NCc1ccc(CNC(=O)[C@@H]2CCCN2C(=O)[C@H](N)Cc2ccccc2)cc1 [Example 10, D-Phe-Pro-p-NHCH2 C6 H4 CH2 NH2.HCl]
Human Plasma Anticoagulation 2x Clotting time TT (human plasma [2]): 420 ng/mL

Nc1ccc(CNC(=O)[C@@H]2CCCN2C(=O)[C@H](N)Cc2ccccc2)cc1 [Example 13, D-Phe-Pro-p-NHCH2 C6 H4 NH2.HCl]
Human Plasma Anticoagulation 2x Clotting time TT (human plasma [2]): 660 ng/mL

CCS(=O)(=O)N[C@H](Cc1ccccc1)C(=O)N1CCC[C@H]1C(=O)NCc1cccc(C(=N)N)c1 [Example 24, EtSO2 -D-Phe-Pro-m-NHCH2 -C6 H4 C(=NH)NH2.HCl]
Human Plasma Anticoagulation 2x Clotting time TT (human plasma [2]): 1,000 ng/mL | Human Plasma Anticoagulation 2x Clotting time PT (human plasma [1]): 25,000 ng/mL

CCS(=O)(=O)N[C@H](Cc1ccccc1)C(=O)N1CCC[C@H]1C(=O)NCCCc1ccc(C(=N)N)cc1 [Example 30, EtSO2 -D-Phe-Pro-p-NHCH2 CH2 CH2 -C6 H4 C(=NH)NH2.HCl]
Human Plasma Anticoagulation 2x Clotting time TT (human plasma [2]): 1,000 ng/mL | Human Plasma Anticoagulation 2x Clotting time APTT (human plasma [3]): 14,000 ng/mL

CCS(=O)(=O)N[C@H](Cc1ccccc1)C(=O)N1CCC[C@H]1C(=O)NCCCc1cccc(C(=N)N)c1 [Example 31, EtSO2 -D-Phe-Pro-m-NHCH2 CH2 CH2 -C6 H4 C(=NH)NH2.HCl]
Human Plasma Anticoagulation 2x Clotting time PT (human plasma [1]): 30,000 ng/mL

CCS(=O)(=O)N[C@H](Cc1ccccc1)C(=O)N1CCC[C@H]1C(=O)NCc1ccc(NC(=N)N)cc1 [Example 34, EtSO2 -D-Phe-Pro-p-NHCH2 C6 H4 NHC(NH)NH2.HCl]
Human Plasma Anticoagulation 2x Clotting time TT (human plasma [2]): 530 ng/mL | Human Plasma Anticoagulation 2x Clotting time PT (human plasma [1]): 5,500 ng/mL | Human Plasma Anticoagulation 2x Clotting time APTT (human plasma [3]): 4,900 ng/mL

CCS(=O)(=O)N[C@H](Cc1ccccc1)C(=O)N1CCC[C@H]1C(=O)NCCc1ccc(NC(=N)N)cc1 [Example 35, EtSO2 -D-Phe-Pro-p-NHCH2 CH2 C6 H4 NHC(NH)NH2.HCl]
Human Plasma Anticoagulation 2x Clotting time TT (human plasma [2]): 4,500 ng/mL | Human Plasma Anticoagulation 2x Clotting time PT (human plasma [1]): 78,400 ng/mL | Human Plasma Anticoagulation 2x Clotting time APTT (human plasma [3]): 50,400 ng/mL

N=C(N)Nc1ccc(CNC(=O)[C@@H]2CCCN2C(=O)[C@@H]2NCC[C@@H]3CCCC[C@@H]32)cc1 [Example 38, D-1-piq-pro-p-NHCH2 C6 H4 NHC(NH)NH2.2HCl]
Human Plasma Anticoagulation 2x Clotting time TT (human plasma [2]): 540 ng/mL | Human Plasma Anticoagulation 2x Clotting time APTT (human plasma [3]): 6,100 ng/mL

N=C(N)Nc1ccc(CCNC(=O)[C@@H]2CCCN2C(=O)[C@@H]2NCC[C@@H]3CCCC[C@@H]32)cc1 [Example 39, D-1-piq-Pro-p-NHCH2 CH2 C6 H4 NHC(NH)NH2.2HCl]
Human Plasma Anticoagulation 2x Clotting time TT (human plasma [2]): 5,300 ng/mL

N=C(N)Nc1cccc(CNC(=O)[C@@H]2CCCN2C(=O)[C@@H]2NCC[C@@H]3CCCC[C@@H]32)c1 [Example 40, D-1-Piq-Pro-m-NHCH2 C6 H4 NHC(NH)NH2.2HCl]
Human Plasma Anticoagulation 2x Clotting time PT (human plasma [1]): > 91,000 ng/mL | Human Plasma Anticoagulation 2x Clotting time APTT (human plasma [3]): > 91,000 ng/mL

N=C(N)Nc1cccc(CCNC(=O)[C@@H]2CCCN2C(=O)[C@@H]2NCC[C@@H]3CCCC[C@@H]32)c1 [Example 41, D-1-Piq-Pro-m-NHCH2 CH2 C6 H4 NHC(NH)NH2.2HCl]
Human Plasma Anticoagulation 2x Clotting time PT (human plasma [1]): > 91,000 ng/mL | Human Plasma Anticoagulation 2x Clotting time APTT (human plasma [3]): > 91,000 ng/mL

O=C(O)CN[C@H](CC1CCCCC1)C(=O)N1CCC[C@H]1C(=O)NCC1CCNCC1 [Example 53, HO2 CCH2 -D-Cha-Pro-4-NHCH2 -piperidine.HCl]
Human Plasma Anticoagulation 2x Clotting time TT (human plasma [2]): 1,400 ng/mL

O=C(O)CN[C@H](CC1CCCCC1)C(=O)N1CCC[C@H]1C(=O)NCCCC1CCNCC1 [Example 55, HO2 CCH2 -D-Cha-Pro-4-NHCH2 CH2 CH2 -piperidine.HCl]
Human Plasma Anticoagulation 2x Clotting time PT (human plasma [1]): > 91,000 ng/mL | Human Plasma Anticoagulation 2x Clotting time APTT (human plasma [3]): > 91,000 ng/mL

N=C(N)NCCCCNC(=O)[C@@H]1CCCN1C(=O)[C@@H]1NCC[C@H]2CCCC[C@H]21 [Example 61, N-[4-[(aminoiminomethyl)amino]butyl]-1-[[(4aR,8aR)-decahydro-1(R)-isoquinolinyl]carbonyl]-1-prolinamide trihydrochloride]
Human Plasma Anticoagulation 2x Clotting time TT (human plasma [2]): 45 ng/mL

Nc1ccc(CNC(=O)[C@@H]2CCCN2C(=O)[C@@H](CC2CCCCC2)NCC(=O)O)cc1 [Example 62, HO2 CCH2 -D-Cha-Pro-4-NHCH2 C6 H4 NH2.HCl]
Human Plasma Anticoagulation 2x Clotting time TT (human plasma [2]): 54 ng/mL

Nc1ccc(CCNC(=O)[C@@H]2CCCN2C(=O)[C@@H](CC2CCCCC2)NCC(=O)O)cc1 [Example 63, HO2 CCH2 -D-Cha-Pro-4-NHCH2 CH2 C6 H4 NH2.HCl]
Human Plasma Anticoagulation 2x Clotting time TT (human plasma [2]): 680 ng/mL

N=C(N)c1ccc(CNC(=O)[C@@H]2CCCN2C(=O)[C@@H](CC2CCCCC2)NCC(=O)O)s1 [Example 65, N-(carboxymethyl)-D-cyclohexylalanyl-N-[[5-(aminoiminomethyl)thiophen-2-yl]methyl]-L-prolinamide hydrochloride]
Human Plasma Anticoagulation 2x Clotting time TT (human plasma [2]): 1 ng/mL | Human Plasma Anticoagulation 2x Clotting time APTT (human plasma [3]): 48 ng/mL

N=C(N)c1ccc(CNC(=O)[C@@H]2CCCN2C(=O)[C@@H](CC2CCCCC2)NCCCC(=O)O)cc1 [Example 85, N-(3-carboxypropyl)-D-cyclohexylalanyl-N-[[4-(aminoiminomethyl)phenyl]methyl]-L-prolinamide hydrochloride]
Human Plasma Anticoagulation 2x Clotting time TT (human plasma [2]): 4.9 ng/mL | Human Plasma Anticoagulation 2x Clotting time APTT (human plasma [3]): 100 ng/mL

CCC(CC)C(=O)N[C@@H](CCC(=O)O)C(=O)N1CCC[C@H]1C(=O)NCc1ccc(C(=N)N)cc1 [Example 90, (C2 H5)2 CHCO-Glu-Pro-p-NHCH2 C6 H4 C(NH)NH2.HCl]
Human Plasma Anticoagulation 2x Clotting time TT (human plasma [2]): 330 ng/mL
